Columns and labels:
[1] = tested on: β-adrenoceptors in the heart; test: Test I. β-Adrenoceptor blocking activity in the anaesthetised cat (intravenous), cardiac (isoprenaline tachycardia); type: in vivo; conditions: hydrochloride salts, isoprenaline 210 seconds after test compound
Method: (§1) Test I. β-Adrenoceptor blocking activity in the anaesthetised cat (intravenous administration).
(§2) Cats were anaesthetised with a mixture of pentobarbitone (6-12 mg./kg.) and chloralose suspension (80 mg./kg.) administered intraperitoneally. The heart rate was recorded from the E.C.G. or from the pulse, and blood pressure was recorded from the carotid artery. Whole (0.3-0.6 μg.) and half (0.15-0.3 μg.) doses of isoprenaline were then administered, intravenously via the jugular vein, alternately at 7 minute intervals over a period of several hours. 210 seconds after a half dose of isoprenaline, one of the compounds under test was administered intravenously. 210 seconds later the whole dose of isoprenaline was administered. The doses of the test compound required to reduce (1) the tachycardia and (2) the fall in diastolic blood pressure produced by the whole dose of isoprenaline to that produced by the half dose were determined. The former response gives a measure of the ability of the test compound to block β-adrenoceptors in the heart while the latter response gives a measure of the ability of the test compound to block the β-adrenoceptors mediating vasodilation.
(§3) Those hydrochloride salts of compounds A, G, H and J were dissolved in water and administered in aqueous solution. Compounds B, C, D, E, F and I were each dissolved in dilute aqueous hydrochloric acid solution (0.1 N) and the solution thus obtained was neutralised by treatment with aqueous sodium hydroxide solution (0.1 N), to give a neutral solution of the hydrochloride salt of the test compound suitable for administration.

[2] = Acute toxicity, mouse, intravenous; conditions: in vivo, read-out: i.v. LD80
[3] = tested on: β-adrenoceptors mediating vasodilation; test: Test I. β-Adrenoceptor blocking activity in the anaesthetised cat (intravenous), vascular (isoprenaline fall in diastolic blood pressure); type: in vivo; conditions: for i.v. Dose Vascular (dose required to reduce fall in diastolic blood pressure produced by whole dose of isoprenaline to that produced by half dose): hydrochloride salts, isoprenaline 210 seconds after test compound; for Ratio cardiac dose / vascular dose: i.v.
Method: as §1, §2, §3

[4] = Acute toxicity, mouse, oral; conditions: in vivo
[5] = tested on: β-adrenoceptors mediating vasodilation; test: Test II. β-Adrenoceptor blocking activity in the anaesthetised dog (intravenous), vascular; type: in vivo; conditions: i.v., hydrochloride salt
Method: as §2
(§4) Test II. β-Adrenoceptor blocking activity in the anaesthetised rhesus monkey and in the anaesthetised dog (intravenous administration)
(§5) Test compound A (hydrochloride salt) was tested intravenously in anaesthetised rhesus monkeys and dogs by proceeding in a similar fashion to that described above in Test I.

[6] = Toxicity, dog, oral, two weeks; type: in vivo, dog (beagle); conditions: beagles, oral daily doses of 10, 50 or 100 mg./kg. during two weeks
Method: Two groups, each of two males and two females, each received a daily dose of 10 or 50 mg./kg. animal body weight and one group, of one male and one female, received a daily dose of 100 mg./kg. animal body weight.

[7] = tested on: β-adrenoceptors in the heart; test: Test II. β-Adrenoceptor blocking activity in the anaesthetised rhesus monkey (intravenous), cardiac; type: in vivo; conditions: i.v., hydrochloride salt
Method: as §2, §4, §5

[8] = tested on: β-adrenoceptors in the heart; test: Test III. β-Adrenoceptor blocking activity in the anaesthetised dog (oral), cardiac; type: in vivo; conditions: hydrochloride salt
Method: as §2
(§6) Test III. β-Adrenoceptor blocking activity in the anaesthetised dog (oral administration)
(§7) Test compound A(hydrochloride salt) was tested orally in anaesthetised dogs by proceeding in a similar fashion to that described above in Test I and Test II. The results are expressed below in Table III.

[9] = tested on: β-adrenoceptors in the heart; test: Test II. β-Adrenoceptor blocking activity in the anaesthetised dog (intravenous), cardiac; type: in vivo; conditions: i.v., hydrochloride salt
Method: as §2, §4, §5

[10] = tested on: β-adrenoceptors mediating vasodilation; test: Test II. β-Adrenoceptor blocking activity in the anaesthetised rhesus monkey (intravenous), vascular; type: in vivo; conditions: i.v., hydrochloride salt
Method: as §2, §4, §5

[11] = tested on: β-adrenoceptors mediating vasodilation; test: Test III. β-Adrenoceptor blocking activity in the anaesthetised dog (oral), vascular; type: in vivo; conditions: hydrochloride salt
Method: as §2, §6, §7

[12] = Toxicity, rat, oral, two weeks; type: in vivo; conditions: oral daily doses of 12, 24, 48 or 96 mg./kg. during two weeks

SMILES | i.v. Dose Cardiac (dose required to reduce tachycardia produced by whole dose of isoprenaline to that produced by half dose) [1] | LD50 [2] [mg/kg] | i.v. Dose Vascular (dose required to reduce fall in diastolic blood pressure produced by whole dose of isoprenaline to that produced by half dose) [3] | Ratio cardiac dose / vascular dose [3] | further results
Cc1ccc(C(=O)c2c(C)cc(C)cc2OCC(O)CNC(C)C)cc1 (racemic) [B, DL-1-(3,5-dimethyl-2-p-toluoylphenoxy)-2-hydroxy-3-isopropylaminopropane] | 2.9 mg./kg. animal body weight | 25 to 31 | 0.031 mg./kg. animal body weight | 93.5 | LD50 [4]: ~1000 mg/kg
Cc1cc(C)c(C(=O)c2ccccc2)c(OCC(O)CNC(C)C)c1 (racemic) [Compound A, DL-1-(2-benzoyl-3,5-dimethylphenoxy)-2-hydroxy-3-isopropylaminopropane] | 1.1 mg./kg. animal body weight | 40 | 0.023 mg./kg. animal body weight | 48 | Dose vascular ([5]; 210 second interval after dose): < 0.02 mg./kg. animal body weight; Dose vascular ([5]; one hour interval after dose): < 0.02 mg./kg. animal body weight; tolerability [6]: well tolerated; Dose cardiac ([7]; 210 second interval after dose): 0.1 mg./kg. animal body weight; Dose cardiac ([7]; one hour interval after dose): > 1 mg./kg. animal body weight; Oral dose cardiac ([8]; 1 hour after dose): 4 mg./kg. animal body weight; Oral dose cardiac ([8]; 2 hours after dose): 3.2 mg./kg. animal body weight; Oral dose cardiac ([8]; 3 hours after dose): 6 mg./kg. animal body weight; Dose cardiac ([9]; 210 second interval after dose): 0.1 mg./kg. animal body weight; Dose cardiac ([9]; one hour interval after dose): 0.13 mg./kg. animal body weight; Dose vascular ([10]; 210 second interval after dose): 0.0087 mg./kg. animal body weight; Dose vascular ([10]; one hour interval after dose): 0.0076 mg./kg. animal body weight; Oral dose vascular ([11]; 1 hour after dose): < 0.1 mg./kg. animal body weight; Oral dose vascular ([11]; 2 hours after dose): 0.08 mg./kg. animal body weight; Oral dose vascular ([11]; 3 hours after dose): 0.1 mg./kg. animal body weight; tolerability [12]: well tolerated
Cc1cc(C)c(C(=O)c2ccccc2)c(OCC(O)CNC(C)C)c1C (racemic) [Compound C, DL-1-(2-benzoyl-3,5,6-trimethylphenoxy)-2-hydroxy-3-isopropylaminopropane] | 4.4 mg./kg. animal body weight | 23 | 2.3 mg./kg. animal body weight | 1.9 | –
Cc1ccc(C(=O)c2c(C)cc(C)cc2OCC(O)CNC(C)(C)C)cc1 (racemic) [Compound I, DL-1-t-butylamino-3-(3,5-dimethyl-2-p-toluoylphenoxy)-2-hydroxypropane] | 0.46 mg./kg. animal body weight | 24 | 0.027 mg./kg. animal body weight | 17 | –
Cc1ccc(C(=O)c2c(C)cc(C)cc2OCC(O)CNCCc2ccccc2)cc1 (racemic) [Compound J, DL-1-(3,5-dimethyl-2-p-toluoylphenoxy)-2-hydroxy-3-(2-phenylethylamino)propane] | ~2.0 mg./kg. animal body weight | – | 0.068 mg./kg. animal body weight | 29 | –
Cc1cc(C)c(C(=O)c2ccccc2C)c(OCC(O)CNC(C)C)c1 (racemic) [D, DL-1-(3,5-dimethyl-2-o-toluoylphenoxy)-2-hydroxy-3-isopropylaminopropane] | 0.8 mg./kg. animal body weight | 34 | 0.16 mg./kg. animal body weight | 5.0 | –
Cc1cc(C)c(C(=O)c2c(C)cccc2C)c(OCC(O)CNC(C)C)c1 (racemic) [E, DL-1-[2-(2,6-dimethylbenzoyl)-3,5-dimethylphenoxy]-2-hydroxy-3-isopropylaminopropane] | 3.7 mg./kg. animal body weight | 42 | 1.8 mg./kg. animal body weight | 2.1 | –
Cc1ccc(C(=O)c2c(C)cc(C)cc2OCC(O)CNC(C)C)c(C)c1 (racemic) [F, DL-1-[2-(2,4-dimethylbenzoyl)-3,5-dimethylphenoxy]-2-hydroxy-3-isopropylaminopropane] | 0.59 mg./kg. animal body weight | 24 | 0.24 mg./kg. animal body weight | 2.5 | –
Cc1ccc(C)c(C(=O)c2ccccc2)c1OCC(O)CNC(C)C (racemic) [G, DL-1-(2-benzoyl-3,6-dimethylphenoxy)-2-hydroxy-3-isopropylaminopropane] | 7.1 mg./kg. animal body weight | – | 4.2 mg./kg. animal body weight | 1.7 | –
Cc1cc(C)c(C(=O)c2ccc(Cl)cc2)c(OCC(O)CNC(C)C)c1 (racemic) [H, DL-1-(2-p-chlorobenzoyl-3,5-dimethylphenoxy)-2-hydroxy-3-isopropylaminopropane] | 0.72 mg./kg. animal body weight | 32 to 40 | 0.037 mg./kg. animal body weight | 19 | –

Reference: patent publication US4201790A, “Benzophenone derivatives” (May & Baker Limited, priority 1975, dated 1980)
